# What was measured:
# [1] = target: T1, TrxR/Trx-1 (Homo sapiens, UniProt P10599); assay: Ellman test, inhibition of TrxR/Trx-1 activity; assay type: biochemical; conditions: Ellman reaction, 37° C. 30 min, absorbance 412 nm; read-out: IC50, inhibition of TrxR/Trx-1 activity
# T1 sequence (P10599 2-105 limits assumed): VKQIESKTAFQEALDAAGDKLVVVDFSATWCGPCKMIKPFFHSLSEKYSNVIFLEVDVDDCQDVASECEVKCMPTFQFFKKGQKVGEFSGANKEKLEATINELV
# Description: Ellman Test—Inhibitory Effect of 6-dithio-substituted-2′-deoxyguanosine Derivative Analogues on TrxR/Trx-1 Activity
# A TrxR/TR experiment based on the Ellman reaction was used to determine the inhibitory activity of candidate compounds. Ellman reaction is that 5,5′-dithiobis (2-nitrobenzoic acid) (DTNB) reacts with sulfhydryl (—SH) to form a yellow substance with absorption at 412 nm. The increase of absorption can be equivalent to the decrease of NADPH mediated by TrxR, thus further judging the activity of TrxR/Trx-1. All experiments were carried out on 96-well plates. Before the start of the enzyme reaction, five groups of corresponding test compound stock solutions with different concentrations were prepared. In the TrxR/Trx-1 reaction, a total volume per well was 60 μL, including 100 mM HEPES, 5 mM EDTA (HE buffer, pH 7.5), 1 mM NADPH, 1.0 μM TrxR, 0.8 μM Trx-1, 2.5 mg/mL bovine insulin and the required concentration of compounds to be tested. No compound to be tested was added to the control group. No compound to be tested, TrxR and Trx-1 were added in the blank group. The plate was shaken on an oscillator for 30 seconds to fully mix the reactants. After incubation at 37° C. for 30 min, 100 μL of the prepared mixture containing 6 M guanidine hydrochloride, 50 mm Tris and 10 mm DTNB was added to terminate the reaction. After 15 minutes of incubation, the absorbance was measured at 412 nm. Finally, TrxR/Trx-1 activity %=(Atest−Akb)/(Acontrol−Akb), that is, the relative percentage of TrxR/Trx-1 activity was the activity inhibited by adding 2′-deoxyguanosine derivatives relative to the activity without 2′-deoxyguanosine derivatives. The data were fitted into a concentration response curve with a variable slope, and the IC50 value was calculated from the curve.
# [2] = tested on: NCM460; assay: MTT assay, cell growth inhibition, NCM460; assay type: cell-based; conditions: Homo sapiens, 48 hours, read-out: Tumor cell growth inhibition IC50, NCM460
# Description: (§1) MTT Assay—Inhibitory Effect of 6-dithio-substituted-2′-deoxyguanosine Derivatives on Tumor Cell Growth
# (§2) We measured the tumor cell growth inhibitory activity of candidate compounds by MTT assay. Human tumor cells in logarithmic growth phase were digested with 0.25% pancreatin for a certain time, centrifuged, re-suspended and counted with a blood cell counting plate to prepare a cell suspension, and the cell suspension was adjusted to 1.0×10^4-1×10^5 cells/mL. The cell suspension was inoculated into a 96-well culture plate, 100 μL per well, and cultured in an incubator with saturated humidity, 37° C. and 5% CO2 for 24 hours until the cells completely adhered to the wall. The test compound was diluted to the required concentration with a complete medium, the complete medium of the 96-well culture plate inoculated with human tumor cells was sucked out, a medicament-containing medium was added, 100 μL per well, the final concentration of DMSO was less than 0.1%, and the culture plate was put in an incubator for 48 hours. 10 μl of MTT was added to each well of the 96-well plate, and the culture was continued for 4 h. The culture was stopped and the culture solution in the well was carefully sucked off. 150 μL DMSO was added to each well, and shaken at a low speed for 10 min on a shaking table, so that the crystal was fully dissolved. The absorbance of each well was measured at OD 570 nm of an enzyme-linked immunosorbent assay instrument. At the same time, zeroing wells (the culture medium, MTT, dimethyl sulfoxide) and control wells (cells, a drug dissolution medium with the same concentration, a culture solution, MTT, dimethyl sulfoxide) were set up, and the cell growth inhibitory activity was calculated with the corresponding solvents as the control. 3-6 multiple wells in each group were set up with repetition of several times. Cell viability of control=(Adrug group−Azeroing well)/(Acontrol well−Azeroing well)*100%. Drawing was drawn, the data were fitted into a concentration response curve with a variable slope, and IC50 value was calculated from the curve.
# [3] = tested on: human colon cancer cells HCT116; assay: MTT assay, tumor cell growth inhibition, HCT116; assay type: cell-based; conditions: HCT-116, 48 hours
# Description: as §1, §2
# [4] = tested on: human colon cancer cells SW620; assay: MTT assay, tumor cell growth inhibition, SW620; assay type: cell-based; conditions: SW-620, 48 hours
# Description: as §1, §2
# [5] = tested on: human colon cancer cells HT29; assay: MTT assay, tumor cell growth inhibition, HT29; assay type: cell-based; conditions: HT-29, 48 hours
# Description: as §1, §2
# [6] = tested on: human melanoma cells A375; assay: MTT assay, tumor cell growth inhibition, A375; assay type: cell-based; conditions: A-375, 48 hours
# Description: as §1, §2
# [7] = tested on: human gastric cancer cells BGC; assay: MTT assay, tumor cell growth inhibition, BGC; assay type: cell-based; conditions: 48 hours
# Description: as §1, §2
# [8] = tested on: human leukemia cells K562; assay: MTT assay, tumor cell growth inhibition, K562; assay type: cell-based; conditions: 48 hours
# Description: as §1, §2
# [9] = tested on: human liver cancer cells HepG2; assay: MTT assay, tumor cell growth inhibition, HepG2; assay type: cell-based; conditions: 48 hours
# Description: as §1, §2
# [10] = tested on: human non-small cell lung cancer A549; assay: MTT assay, tumor cell growth inhibition, A549; assay type: cell-based; conditions: 48 hours
# Description: as §1, §2
# [11] = tested on: human breast cancer cells MCF7; assay: MTT assay, tumor cell growth inhibition, MCF7; assay type: cell-based; conditions: 48 hours
# Description: as §1, §2
# [12] = tested on: human breast cancer cells Bcap37; assay: MTT assay, tumor cell growth inhibition, Bcap37; assay type: cell-based; conditions: 48 hours
# Description: as §1, §2
# [13] = tested on: human colon cancer cell line HCT116 subcutaneous transplanted tumor; assay: Tumor-bearing test in nude mice, HCT116 subcutaneous transplanted tumor (tumor volume, TUNEL); assay type: in vivo; conditions: HCT116 model
# Description: Tumor-Bearing Test in Nude Mice—Inhibitory Effect of 6-Dithio-Substituted-2′-Deoxyguanosine Derivatives on the Growth of Subcutaneous Transplanted Tumor Tissue in Nude Mice
# 1) Tumor-Bearing Mouse Model of Human Colon Cancer Cell Line HCT116
# (§3) We took human colon cancer cell line HCT116 as the research object, and established a subcutaneous transplanted tumor model of human colon cancer in 32 immunodeficient nude mice. The 24th generation HCT116 cells in logarithmic growth phase were digested with pancreatin to prepare a single-cell suspension, and 1×10^7 cells were inoculated subcutaneously in the right armpit of male nude mice about 5 weeks old. After inoculation, cyclophosphamide (100 mg/kg) was injected intraperitoneally for two consecutive days. […] On the 20th day after colon cancer cell HCT116 was implanted subcutaneously, nude mice were divided into 7 groups by a random number table method, including a test drug group, a positive control group and a blank control group. Specifically, group A: the compound A was administrated; Group B: the compound B was administrated; Group C: the compound C was administrated; Group D: the compound D was administrated; Group E: the compound 6-thio-DG was administrated; Group F: the compound PX-12 was administrated; Group G: blank group, without administration of any compound. Except group C with 3 rats and group G with 4 rats, all other 5 groups had 5 rats, they mice were labeled and injected by tail vein once every two days for 24 days, 12 times, with the dose of compound A being 2 mg/kg for the first 8 times and 10 mg/kg for the last 4 times, and the dosages of other drugs being the same molar weights. The tumor volume was calculated by taking the length of the tumor as the longest diameter and the width as the corresponding vertical diameter, and the tumor volume V=(length×width^2) mm^3/2. 48 hours after the last treatment, blood was taken from the eyes, and then the animals were killed. Blood was centrifuged to get the supernatant, and then blood biochemical analysis was performed. Paraffin embedded sections of fixed tissues were stained with HE. The tumor mass in a frozen tissue was sectioned in a frozen state, and then stained by DAPI and TUNEL to judge the apoptosis of the tumor tissue in nude mice.
# [14] = Blood biochemical analysis and HE staining of tissues in HCT116 tumor-bearing nude mice; assay type: in vivo; conditions: tail vein once every two days, 12 times, blood 48 hours after the last treatment
# Experimental: as §3
smiles,measurement,setting,value
"Nc1nc2c(ncn2[C@H]2C[C@H](O)[C@@H](CO)O2)c(=S)[nH]1 [Compound 6-thio-dG, 6-thio-2′-deoxyguanosine, reference compound]",IC50,[1],> 100 µM
same,IC50,[2],> 1000 µM
same,IC50,[3],17.5 µM
same,IC50,[4],> 100 µM
same,IC50,[5],3.04 µM
same,IC50,[6],0.4 µM
same,IC50,[7],> 100 µM
same,IC50,[8],23.3 µM
same,IC50,[9],< 10 µM
same,IC50,[10],33.6 µM
same,IC50,[11],> 100 µM
same,IC50,[12],> 100 µM
same,"Extent of apoptosis in tumor tissue (TUNEL staining, rank order)","[13]; frozen tumor sections, DAPI and TUNEL, G group = blank",D group>A group≈B group≈E group (6-thio-dG group)>C group>F group (PX-12 group)>G group (KB group)
same,"Inhibitory effect on the growth of subcutaneous transplanted tumor tissue in nude mice (rank order, from slope of tumor volume)","[13]; tail vein once every two days for 24 days, compound A 2 mg/kg first 8 times, 10 mg/kg last 4 times, others equimolar, KB = blank",D>B≈A≈6-thio-dG>PX-12>C>KB
same,Alanine aminotransferase,[14],44.3 U/L
same,Albumin,[14],29.8 g/L
same,Alkaline phosphatase,[14],49.6 U/L
same,Aspartate aminotransferase,[14],172.4 U/L
same,BUN,[14],11.5 mmol/L
same,Chloride ion,[14],120.8 mmol/L
same,Creatine kinase,[14],2125 U/L
same,Creatinine,[14],12.0 µmol/L
same,Glucose,[14],3.12 mmol/L
same,Potassium ion,[14],7.18 mmol/L
same,Sodium ion,[14],158.8 mmol/L
same,Total bilirubin,[14],-0.10 µmol/L
same,Total cholesterol,[14],2.62 mmol/L
same,Total protein,[14],51.8 g/L
same,Triglyceride,[14],1.10 mmol/L
